The values that follow come from patent publication US10266542B2, “EZH2 inhibitors” (priority 2017, dated 2019).

Where two headings read alike, the source gives them in different places. Where only a bound is given, the exact number is not on record here.

Usually IC50 stands for the concentration that gives 50% inhibition.

In test [1] the test system is EZH2-mediated histone H3 Lys27 trimethylation in Pfeiffer cells (mutant EZH2 A677G). Put plainly: Tri-Methyl Histone H3 (Lys 27) Sandwich ELISA in Pfeiffer cells. It counts as cell-based, human.
Description: Briefly, Pfeiffer cells were cultured in RPMI medium supplemented with 10% fetal bovine serum and 1% penicillin and 1% streptomycin in 96 well culture plates at 37° C. to a density of 8000 cells/90 μl/well and the cells were harvested. […] The plates were incubated at 37° C. for 96 hours.
After incubation, the cells were pelleted by centrifugation in a pre-cooled 4° C. rotor at 1,100 rpm for 10 min and the supernatant was removed by aspiration. The cell pellet was resuspended in 55 μl of Lysis Buffer (0.4M HCl) and incubated on ice with periodic shaking for 30 minutes. The lysed cells were subjected to centrifugation at 4,200 rpm for 10 min at 4° C. and the supernatant containing acid-soluble proteins was collected and the remainder discarded.
A 65 μl aliquot of each cell lysate was added to a well of a microwell strip, the microwells were sealed using tape and incubated either at 37° C. for two hours or at 4° C. overnight. After incubation, the tape was removed at the microwells were washed four times using 200 μl of 1× Wash Buffer. To each washed microwell, a 100 μl aliquot of an anti-trimethyl histone H3 Lys27 Detection Antibody solution was added and the microwells were incubated at 37° C. for one hour. The Detection Antibody solution was removed by aspiration and the wells were washed four times each using 200 μl of 1× Wash Buffer.
A 100 μl aliquot of an HRP-linked secondary antibody was added to each well, the wells were sealed with tape and incubated at 37° C. for 30 min. The HRP-linked secondary antibody solution was removed by aspiration and the wells were washed four times using 200 μl of 1× Wash Buffer. A 100 μl aliquot of a TMB substrate was added to each well, the wells were sealed with tape and incubated at 37° C. for 10 min or 25° C. for 30 min. The reaction was stopped by the addition of 100 μl aliquot of a STOP solution and the plate was shaken briefly. The degree of histone H3 trimethylation was determined using a spectrophotometric readout by measuring the absorbance at 450 nm and then calculating the amount of trimethylated histone H3.
A further test concerns the target purified EZH2 enzyme (Homo sapiens (Human), UniProt Q15910). Description: biochemical. The settings on record: purified EZH2, 4 μM SAM, histone 3.3 substrate, 30° C. three hours, fluorescence polarization readout. (In general: In fluorescence polarisation assays a small probe gives low polarisation when free and higher when bound to something large.)
Where [2] appears, read: Homo sapiens, Pfeiffer cells (DLBCL, EZH2 A677G), 96 hours incubation, H3K27me3 ELISA, absorbance at 450 nm, read-out: IC50.
[3] abbreviates: Pfeiffer cells (DLBCL, EZH2 A677G), 96 hours incubation, H3K27me3 ELISA, absorbance at 450 nm, read-out: IC50.

As to `COC(c1cc(Cl)c2c(c1Cl)C(=O)N(Cc1c(=O)[nH]c(C)c3ccoc13)CC2)C1CN(C)C1` (centres unmarked) [Example 10, 7-((5,8-dichloro-7-(methoxy(1-methylazetidin-3-yl)methyl)-1-oxo-3,4-dihydroisoquinolin-2(1H)-yl)methyl)-4-methylfuro[3,2-c]pyridin-6(5H)-one], in test [1] (setting [2]), the IC50 was 0.336 µM.

On to `Cc1[nH]c(=O)c(CN2CCc3c(Cl)cc(OC(C)C)c(Cl)c3C2=O)c2occc12` [Example 1, 7-((5,8-dichloro-7-isopropoxy-1-oxo-3,4-dihydroisoquinolin-2(1H)-yl)methyl)-4-methylfuro[3,2-c]pyridin-6(5H)-one], for which the IC50 in test [1] (Homo sapiens, Pfeiffer, 96 h) came out at 0.759 µM; against purified EZH2 enzyme it was 0.006 µM.

Take `Cc1[nH]c(=O)c(CN2CCc3c(Cl)cc(OC(C)C)c(Cl)c3C2=O)c2cc[nH]c12` [Example 4, 5,8-dichloro-7-isopropoxy-2-((7-methyl-5-oxo-5,6-dihydro-1H-pyrrolo[2,3-c]pyridin-4-yl)methyl)-3,4-dihydroisoquinolin-1(2H)-one]: the IC50 in test [1] (setting [2]) stood at 1.04 µM; on purified EZH2 enzyme, 0.202 µM.

As to `Cc1[nH]c(=O)c(CN2CCc3ccc(OC(C)C)c(Cl)c3C2=O)c2occc12` [Example 6, 7-((8-chloro-7-isopropoxy-1-oxo-3,4-dihydroisoquinolin-2(1H)-yl)methyl)-4-methylfuro[3,2-c]pyridin-6(5H)-one], the results for the 50% inhibitory concentration (IC50) (in test [1] (setting [2]); on purified EZH2 enzyme) were 0.044 µM and 0.007 µM, respectively.

Consider `COC(c1cc(Cl)c2c(c1Cl)C(=O)N(Cc1c(=O)[nH]c(C)c3ccoc13)CC2)C1CS(=O)(=O)C1` (centres unmarked) [Example 18, 7-((5,8-dichloro-7-((1,1-dioxidothietan-3-yl)(methoxy)methyl)-1-oxo-3,4-dihydroisoquinolin-2(1H)-yl)methyl)-4-methylfuro[3,2-c]pyridin-6(5H)-one], for which the IC50 came out at 0.078 µM in test [1] (setting [2]) and 0.002 µM on purified EZH2 enzyme.

As for “7-[[5-bromo-8-chloro-7-(3,5-dimethyltriazol-4-yl)-1-oxo-3,4-dihydroisoquinolin-2-yl]methyl]-4-methyl-5H-furo[3,2-c]pyridin-6-one [Example 7]”, the values for the IC50 (in test [1] (setting [3]); against purified EZH2 enzyme) were 0.03 µM and 0.003 µM, respectively.

As for `Cc1[nH]c(=O)c(CN2CCc3c(Cl)cc(C(C)C4COC4)c(Cl)c3C2=O)c2cc[nH]c12` (centres unmarked) [Example 19, 5,8-dichloro-2-[(7-methyl-5-oxo-1,6-dihydropyrrolo[2,3-c]pyridin-4-yl)methyl]-7-[1-(oxetan-3-yl)ethyl]-3,4-dihydroisoquinolin-1-one], the IC50 came to 0.078 µM in test [1] (setting [2]) and 0.002 µM at purified EZH2 enzyme.

Consider `Cc1noc(C)c1-c1cc(Cl)c2c(c1Cl)C(=O)N(Cc1c(=O)[nH]c(C)c3ccoc13)CC2` [Example 16, 7-((5,8-dichloro-7-(3,5-dimethylisoxazol-4-yl)-1-oxo-3,4-dihydroisoquinolin-2(1H)-yl)methyl)-4-methylfuro[3,2-c]pyridin-6(5H)-one], for which the figures for the IC50 (in test [1] (setting [2]); against purified EZH2 enzyme) were 0.007 µM and 0.003 µM, respectively.

As for “5,8-dichloro-7-(3,5-dimethyltriazol-4-yl)-2-[(7-methyl-5-oxo-1,6-dihydropyrrolo[2,3-c]pyridin-4-yl)methyl]-3,4-dihydroisoquinolin-1-one [Example 15]”, the IC50 amounted to 0.006 µM in test [1] (setting [3]) and 0.002 µM at purified EZH2 enzyme.

Consider `COC(c1cc(Cl)c2c(c1Cl)C(=O)N(Cc1c(=O)[nH]c(C)c3ccoc13)CC2)C1COC1` (centres unmarked) [Example 9, 7-((5,8-dichloro-7-(methoxy(oxetan-3-yl)methyl)-1-oxo-3,4-dihydroisoquinolin-2(1H)-yl)methyl)-4-methylfuro[3,2-c]pyridin-6(5H)-one], for which the IC50 in test [1] (Homo sapiens, Pfeiffer, 96 h) worked out at 0.126 µM; against purified EZH2 enzyme, 0.004 µM.

On to `Cc1noc(C)c1-c1cc(Cl)c2c(c1Cl)C(=O)N(Cc1c(=O)[nH]c(C)c3[nH]ccc13)CC2` [Example 13, 5,8-dichloro-7-(3,5-dimethylisoxazol-4-yl)-2-((7-methyl-5-oxo-5,6-dihydro-1H-pyrrolo[2,3-c]pyridin-4-yl)methyl)-3,4-dihydroisoquinolin-1 (2H)-one], for which the IC50 at purified EZH2 enzyme amounted to 0.002 µM.

As for `Cc1[nH]c(=O)c(CN2CCc3c(Cl)cc(N4CC5(CCOCC5)C4)c(Cl)c3C2=O)c2cc[nH]c12` [Example 5, 5,8-dichloro-2-((7-methyl-5-oxo-5,6-dihydro-1H-pyrrolo[2,3-c]pyridin-4-yl)methyl)-7-(7-oxa-2-azaspiro[3.5]nonan-2-yl)-3,4-dihydroisoquinolin-1(2H)-one], the IC50 in test [1] (setting [2]) is 0.017 µM; against purified EZH2 enzyme, under 0.0005 µM.

On to `CCN(c1cc(Cl)c2c(c1Cl)C(=O)N(Cc1c(=O)[nH]c(C)c3ccoc13)CC2)C1CCOCC1` [Example 3, 7-((5,8-dichloro-7-(ethyl(tetrahydro-2H-pyran-4-yl)amino)-1-oxo-3,4-dihydroisoquinolin-2(1H)-yl)methyl)-4-methylfuro[3,2-c]pyridin-6(5H)-on], for which the figures for the IC50 (in test [1] (setting [2]); against purified EZH2 enzyme) were 0.031 µM and 0.005 µM, respectively.

As to `COC(c1cc(Cl)c2c(c1Cl)C(=O)N(Cc1c(=O)[nH]c(C)c3[nH]ccc13)CC2)C1CN(C)C1` (centres unmarked) [Example 11, 5,8-dichloro-7-(methoxy(1-methylazetidin-3-yl)methyl)-2-((7-methyl-5-oxo-5,6-dihydro-1H-pyrrolo[2,3-c]pyridin-4-yl)methyl)-3,4-dihydroisoquinolin-1(2H)-one], the IC50 in test [1] (setting [2]) came out at 0.012 µM; against purified EZH2 enzyme it was 0.01 µM.

Turning to `Cc1cc2c(C)[nH]c(=O)c(CN3CCc4c(Cl)cc(OC(C)C)c(Cl)c4C3=O)c2o1` [Example 8, 7-((5,8-dichloro-7-isopropoxy-1-oxo-3,4-dihydroisoquinolin-2(1H)-yl)methyl)-2,4-dimethylfuro[3,2-c]pyridin-6(5H)-one], 0.095 µM corresponded to half-maximal inhibition against purified EZH2 enzyme (IC50).

As for `COC(c1cc(Cl)c2c(c1Cl)C(=O)N(Cc1c(=O)[nH]c(C)c3sccc13)CC2)C1COC1` (centres unmarked) [Example 12, 4-((5,8-dichloro-7-(methoxy(oxetan-3-yl)methyl)-1-oxo-3,4-dihydroisoquinolin-2(1H)-yl)methyl)-7-methylthieno[2,3-c]pyridin-5(6H)-one], the figures for the IC50 (in test [1] (setting [2]); against purified EZH2 enzyme) were 0.33 µM and 0.037 µM, respectively.

Take `COC(c1cc(Cl)c2c(c1Cl)C(=O)N(Cc1c(=O)[nH]c(C)c3[nH]ccc13)CC2)C1COC1` (centres unmarked) [Example 17, 5,8-dichloro-7-[methoxy(oxetan-3-yl)methyl]-2-[(7-methyl-5-oxo-1,6-dihydropyrrolo[2,3-c]pyridin-4-yl)methyl]-3,4-dihydroisoquinolin-1-one]: the IC50 at purified EZH2 enzyme came to 0.001 µM.

As for `Cc1[nH]c(=O)c(CN2CCc3c(Cl)cc(N4CC5(CCOCC5)C4)c(Cl)c3C2=O)c2occc12` [Example 2, 7-((5,8-dichloro-1-oxo-7-(7-oxa-2-azaspiro[3.5]nonan-2-yl)-3,4-dihydroisoquinolin-2(1H)-yl)methyl)-4-methylfuro[3,2-c]pyridin-6(5H)-one], the IC50 in test [1] (setting [2]) was 0.273 µM; on purified EZH2 enzyme it was 0.005 µM.
